For 33 compounds, IC50 results are on record in US20250129028A1, “COMPOUNDS AND METHODS FOR YAP/TEAD MODULATION AND INDICATIONS THEREFOR” (Opna Bio SA, priority 2022, published 2025).

Molecules are shown by their SMILES.

The test system of one test is TEAD-dependent transcription. The test is described as follows: TEAD-dependent transcription cell-based reporter assay (MSTO-211H+12XGTIIC luciferase). The note with it: Homo sapiens; MSTO-211H+12XGTIIC cell line, luciferase signal normalized to cell viability, 24 hours compound incubation; read-out: MSTO-211H GMean IC50 (uM) Cell Assay Reporter Cell Variant: TEAD. Set-up: species or system human. An excerpt: Determine Inhibitor Activity Against TEAD-Dependent Transcription in a Cell-Based Reporter Assay
The human mesothelioma cell line MSTO-211H was stably transfected with a pGL4.21 plasmid containing a synthetic promoter with 12 copies of the GTIIC TEAD response element that drives the expression of a luciferase reporter gene^1 using Lipofectamine transfection reagent (Thermo Fisher). Transfected cells were selected using puromycin and single cell clones expressing this construct (referred to as MSTO-211H+12XGTIIC) were generated by limiting dilution. MSTO-211H cells was characterized by genetic alterations in key components of the Hippo pathway^2, resulting in up-regulation of YAP/TEAD-mediated transcription. […] To evaluate TEAD inhibitors, the MSTO-211H+12XGTIIC cell line was seeded in a 96-well plate in 50 μL of culture media at 1×10^4 cells per well and incubated at 37° C. overnight. Serial dilutions of compounds (in total volume of 50 μL of culture media) were added to the cells and incubated at 37° C. for 24 hours. Each plate included cells treated with DMSO as high controls and cells treated with 20 μM of the reference compound K-975 (a known TEAD inhibitor)^3 as low controls. Cell viability was assayed by the addition of 25 μL of CellTiter-Fluor reagent (Promega) followed by a 30-minute incubation at 37° C. and quantification of the fluorescence signal (Ex400/Em505). Subsequently, luciferase expression was assayed by the addition of 25 μL of ONE-Glo reagent (Promega) followed by a 10-minute incubation at room temperature and quantification of the luminescence signal. The luminescence signal was normalized to the fluorescence signal to correct for any loss in cell viability over the 24-hour compound incubation period. The percentage of inhibition of normalized luminescence signal, indicative of compound-mediated inhibition of TEAD-dependent transcription, at individual compound concentrations relative to high and low controls was calculated. The data were analyzed by using nonlinear regression to generate IC50 values for individual compounds.
A general note: A reporter such as luciferase makes a cellular process visible.
What is called IC50 is the concentration that gives 50% inhibition. With `C=CC(=O)N1CCC(C2c3cc(Oc4ccc(C(F)(F)F)cc4)ccc3CCN2C(=O)CCS(C)(=O)=O)C1` (single isomer, unassigned) [P-0217, 1-(3-(2-(3-(methylsulfonyl)propanoyl)-7-(4-(trifluoromethyl)phenoxy)-1,2,3,4-tetrahydroisoquinolin-1-yl)pyrrolidin-1-yl)prop-2-en-1-one], the IC50 lay within 0.001 to 10 µM.

As to `NS(=O)(=O)N1CCc2ccc(Oc3ccc(C(F)(F)F)cc3)cc2C1` [P-0001, 7-(4-(trifluoromethyl)-phenoxy)-3,4-dihydroiso-quinoline-2(1H)-sulfon-amide], the IC50 lay within 0.001 to 10 µM.

In the case of `CCS(=O)(=O)N1CCc2ccc(Oc3ccc(C(F)(F)F)cc3)cc2C1` [P-0002, 2-(ethylsulfonyl)-7-(4-(trifluoromethyl)phen-oxy)-1,2,3,4-tetrahydro-isoquinoline], the IC50 lay in the range of 0.001 to 10 µM.

`CCNC(=O)N1CCc2ccc(Oc3ccc(C(F)(F)F)cc3)cc2C1` [P-0003, N-ethyl-7-(4-(trifluoro-methyl)phenoxy)-3,4-dihydroisoquinoline-2(1H)-carboxamide]: the IC50 was in the range of 0.001 to 10 µM.

As for `O=C(NC1CC1)N1CCc2ccc(Oc3ccc(C(F)(F)F)cc3)cc2C1` [P-0004, N-cyclopropyl-7-(4-(trifluoromethyl)phen-oxy)-3,4-dihydroiso-quinoline-2(1H)-carbox-amide], the concentration for half-maximal inhibition (IC50) fell in the range of 0.001 to 10 µM.

For `CS(=O)(=O)N1CCc2ccc(Oc3ccc(C(F)(F)F)cc3)cc2C1` [P-0005, 2-(methylsulfonyl)-7-(4-(trifluoromethyl)phen-oxy)-1,2,3,4-tetrahydro-isoquinoline], the IC50 fell in the range of 0.001 to 10 µM.

For the compound `O=S(=O)(C1CC1)N1CCc2ccc(Oc3ccc(C(F)(F)F)cc3)cc2C1` [P-0006, 2-(cyclopropylsulfonyl)-7-(4-(trifluoromethyl)-phenoxy)-1,2,3,4-tetra-hydroisoquinoline], the IC50 lay in the range of 0.001 to 10 µM.

As for `O=C(C(O)CO)N1CCc2ccc(Oc3ccc(C(F)(F)F)cc3)cc2C1` (stereo not drawn) [P-0007, 2,3-dihydroxy-1-(7-(4-(trifluoromethyl)phen-oxy)-3,4-dihydroisoquin-olin-2(1H)-yl)propan-1-one], the 50% inhibitory concentration (IC50) is 0.001 to 10 µM.

On to `NC(=O)N1CCc2ccc(Oc3ccc(C(F)(F)F)cc3)cc2C1` [P-0010, 7-(4-(trifluoromethyl)-phenoxy)-3,4-dihydroiso-quinoline-2(1H)-carbox-amide], for which the IC50 fell in the range of 0.001 to 10 µM.

For `O=C(N1CCc2ccc(Oc3ccc(C(F)(F)F)cc3)cc2C1)C12CC1C2` (stereo not drawn) [P-0011, bicyclo[1.1.0]butan-1-yl(7-(4-(trifluoromethyl)-phenoxy)-3,4-dihydro-isoquinolin-2(1H)-yl)-methanone], the IC50 fell in the range of 0.001 to 10 µM.

As for `CNS(=O)(=O)N1CCc2ccc(Oc3ccc(C(F)(F)F)cc3)cc2C1` [P-0012, N-methyl-7-(4-(trifluoro-methyl)phenoxy)-3,4-dihydroisoquinoline-2(1H)-sulfonamide], the IC50 lay within 0.001 to 10 µM.

Consider `CC(=O)N1CCc2ccc(Oc3ccc(C(F)(F)F)cc3)cc2C1` [P-0013, 1-(7-(4-(trifluorometh-yl)phenoxy)-3,4-dihydroisoquinolin-2(1H)-yl)ethan-1-one], for which the IC50 lay within 0.001 to 10 µM.

For the compound `CCC(=O)N1CCc2ccc(Oc3ccc(C(F)(F)F)cc3)cc2C1` [P-0014, 1-(7-(4-(trifluorometh-yl)phenoxy)-3,4-dihydroisoquinolin-2(1H)-yl)propan-1-one], the IC50 is 0.001 to 10 µM.

Consider `O=C(C1CC1)N1CCc2ccc(Oc3ccc(C(F)(F)F)cc3)cc2C1` [P-0015, cyclopropyl(7-(4-(trifluoromethyl)phen-oxy)-3,4-dihydroiso-quinolin-2(1H)-yl)-methanone], for which the IC50 is 0.001 to 10 µM.

`CNC(=O)N1CCc2ccc(Oc3ccc(C(F)(F)F)cc3)cc2C1` [P-0016, N-methyl-7-(4-(trifluoro-methyl)phenoxy)-3,4-dihydroisoquinoline-2(1H)-carboxamide]: the IC50 is 0.001 to 10 µM.

For the compound `CCNS(=O)(=O)N1CCc2ccc(Oc3ccc(C(F)(F)F)cc3)cc2C1` [P-0017, N-Ethyl-7-(4-(trifluoromethyl)phenoxy)-3,4-dihydroisoquinoline-2(1H)-sulfonamide], the IC50 lay within 0.001 to 10 µM.

On to `CS(=O)(=O)CCC(=O)N1CCc2ccc(Oc3ccc(C(F)(F)F)cc3)cc2C1` [P-0018, 3-(methylsulfonyl)-1-(7-(4-(trifluoromethyl)phenoxy)-3,4-dihydroisoquinolin-2(1H)-yl)propan-1-one], for which the IC50 is 0.001 to 10 µM.

In the case of `CC(C)NC(=O)N1CCc2ccc(Oc3ccc(C(F)(F)F)cc3)cc2C1` [P-0019, N-isopropyl-7-(4-(trifluoromethyl)phen-oxy)-3,4-dihydroiso-quinoline-2(1H)-carbox-amide], the IC50 is 0.001 to 10 µM.

For `CC(C)NS(=O)(=O)N1CCc2ccc(Oc3ccc(C(F)(F)F)cc3)cc2C1` [P-0020, N-isopropyl-7-(4-(trifluoromethyl)phen-oxy)-3,4-dihydroiso-quinoline-2(1H)-sulfon-amide], the IC50 lay within 0.001 to 10 µM.

Take `CC(C)S(=O)(=O)N1CCc2ccc(Oc3ccc(C(F)(F)F)cc3)cc2C1` [P-0021, 2-(isopropylsulfonyl)-7-(4-(trifluoromethyl)-phenoxy)-1,2,3,4-tetra-hydroisoquinoline]: the IC50 lay within 0.001 to 10 µM.

With `O=C(Nc1ccccc1)N1CCc2ccc(Oc3ccc(C(F)(F)F)cc3)cc2C1` [P-0022, N-phenyl-7-(4-(trifluoro-methyl)phenoxy)-3,4-dihydroisoquinoline-2(1H)-carboxamide], the IC50 was 0.001 to 10 µM.

`CCCCC(=O)N1CCc2ccc(Oc3ccc(C(F)(F)F)cc3)cc2C1` [P-0023, 1-(7-(4-(trifluorometh-yl)phenoxy)-3,4-dihydro-isoquinolin-2(1H)-yl)-pentan-1-one]: the IC50 lay within 0.001 to 10 µM.

Regarding `CN(C)S(=O)(=O)N1CCc2ccc(Oc3ccc(C(F)(F)F)cc3)cc2C1` [P-0024, N,N-dimethyl-7-(4-(trifluoromethyl)phen-oxy)-3,4-dihydroiso-quinoline-2(1H)-sulfon-amide], the IC50 lay within 0.001 to 10 µM.

Take `COC(=O)N1CCc2ccc(Oc3ccc(C(F)(F)F)cc3)cc2C1` [P-0025, methyl 7-(4-(trifluoro-methyl)phenoxy)-3,4-dihydroisoquinoline-2(1H)-carboxylate]: the IC50 was 0.001 to 10 µM.

Consider `NC(=O)CN1CCc2ccc(Oc3ccc(C(F)(F)F)cc3)cc2C1` [P-0026, 2-(7-(4-(trifluorometh-yl)phenoxy)-3,4-dihydro-isoquinolin-2(1H)-yl)-acetamide], for which the IC50 is 0.001 to 10 µM.

As for `CN(C)C(=O)CN1CCc2ccc(Oc3ccc(C(F)(F)F)cc3)cc2C1` [P-0027, N,N-dimethyl-2-(7-(4-(trifluoromethyl)phen-oxy)-3,4-dihydroisoquin-olin-2(1H)-yl)acetamide], the IC50 lay within 0.001 to 10 µM.

Consider `CCC(=O)CN1CCc2ccc(Oc3ccc(C(F)(F)F)cc3)cc2C1` [P-0028, 1-(7-(4-(trifluorometh-yl)phenoxy)-3,4-dihydro-isoquinolin-2(1H)-yl)-butan-2-one], for which the IC50 was 10 to 100 µM.

For `NC(=O)CCN1CCc2ccc(Oc3ccc(C(F)(F)F)cc3)cc2C1` [P-0029, 3-(7-(4-(trifluorometh-yl)phenoxy)-3,4-dihydro-isoquinolin-2(1H)-yl)-propanamide], the IC50 lay within 10 to 100 µM.

Regarding `O=S(=O)(N1CCCC1)N1CCc2ccc(Oc3ccc(C(F)(F)F)cc3)cc2C1` [P-0030, 2-(pyrrolidin-1-ylsulfon-yl)-7-(4-(trifluorometh-yl)phenoxy)-1,2,3,4-tetrahydroisoquinoline], the IC50 was 0.001 to 10 µM.

For the compound `CSCCC(=O)N1CCc2ccc(Oc3ccc(C(F)(F)F)cc3)cc2C1` [P-0031, 3-(methylthio)-1-(7-(4-(trifluoromethyl)phen-oxy)-3,4-dihydroisoquin-olin-2(1H)-yl)propan-1-one], the IC50 is 0.001 to 10 µM.

On to `CCCCNC(=O)N1CCc2ccc(Oc3ccc(C(F)(F)F)cc3)cc2C1` [P-0032, N-butyl-7-(4-(trifluoro-methyl)phenoxy)-3,4-dihydroisoquinoline-2(1H)-carboxamide], for which the IC50 was in the range of 0.001 to 10 µM.

On to `O=C(C1CCC1)N1CCc2ccc(Oc3ccc(C(F)(F)F)cc3)cc2C1` [P-0033, cyclobutyl(7-(4-(trifluoro-methyl)phenoxy)-3,4-dihydroisoquinolin-2(1H)-yl)methanone], for which the IC50 was 0.001 to 10 µM.

Still in this test, the particulars now being: MSTO-211H+12XGTIIC cell line, luciferase signal normalized to cell viability, 24 hours compound incubation; read-out: MSTO-211H GMean IC50 (uM) Cell Assay Reporter Cell Variant: TEAD.
On to `C=CC(=O)N1CCC(C2c3cc(Oc4ccc(C(F)(F)F)cc4)ccc3CCN2C(=O)CCS(C)(=O)=O)C1` (single isomer, unassigned) [P-0218, 1-(3-(2-(3-(methylsulfonyl)propanoyl)-7-(4-(trifluoromethyl)phenoxy)-1,2,3,4-tetrahydroisoquinolin-1-yl)pyrrolidin-1-yl)prop-2-en-1-one], for which the IC50 is 0.001 to 10 µM.
